Laboratory results as given in paper PMC12655351, “Synthesis and Anticancer Activity Evaluation of New 5-((5-Nitrofuran-2-yl)allylidene)-2-thioxo-4-thiazolidinones” (Pharmaceuticals, 2025).
pIC50: −log10 of the molar value. Where a name gives a salt, the structure may show the parent alone. Read-outs that look alike come from different tables or passages of the source.

Key:
MCF-7 [1] = test: [3H]-thymidine incorporation assay; format: cell-based; settings: Homo sapiens, MCF7; MCF-7, 24 h of treatment
Description: (§1) Another method of assessing the cytotoxic effects of tested compounds, [^3H]-thymidine incorporation assay, was applied. This method provided the capability to analyze the antiproliferative activity of novel structures on MCF-7 and MDA-MB-231 through their ability to incorporate thymidine into the cells. The acquired results further confirmed the potent activity of the 14b compound as the most prominent structure among the novel compounds (Table 2). The test was carried out in triplicate at concentrations of 5, 15, and 30 μM for the MDA-MB-231 cell line and 1, 5, and 10 μM for the MCF-7 cell line.
(§2) Following the selection of cell lines for further study, the effects of all compounds on cell proliferation were evaluated on MCF-7 and MDA-MB-231 cell lines. Cells were seeded in 24-well plates and cultured as described above. Cells were treated with the compounds at concentrations 1, 5, and 10 μM, and 5, 15, and 30 μM for MCF-7 and MDA-MB-231 cell lines, respectively, for 24 h. Subsequently, 0.5 μCi [^3H]-thymidine was added for 4 h at 37 °C. Then, plates with cells were placed on the ice, the liquid was aspirated, and cells were washed twice with 1mL of 0.05 M Tris-HCl buffer comprising 0.11 M NaCl and precipitated by adding 1 mL per well of 5% trichloroacetic. After precipitation, the cells were dissolved with 1 mL of 0.1 M NaOH with 1% SDS (Sigma-Aldrich, St. Louis, MO, USA) at room temperature (RT). The cell lysates were transferred into scintillation vials containing 2 mL of scintillation fluid (Ultima Gold™ XR, PerkinElmer, MA, USA), and cell-associated radioactivity was measured using a Scintillation Counter 1900 TR, TRI-CARB (Packard, Perkin Elmer, Inc., San Jose, CA, USA). The [^3H]-thymidine uptake was expressed as a percentage of the control value.

MDA-MB-231 [2] = test: [3H]-thymidine incorporation assay; format: cell-based; settings: Homo sapiens; MDA-MB-231, 24 h of treatment
Description: as §1, §2

HT-29 = test: MTT assay; format: cell-based; settings: Homo sapiens; HT-29, 24 h of treatment
Description: (§3) The NCI-60 screening protocol utilizes the sulforhodamine B (SRB) assay following 48 h of compound exposure. […] The MTT assay was performed on eleven cancer cell lines: human breast cancer (MDA-MB-231, MCF-7, HCC 1954), human gastric cancer (AGS), human colorectal adenocarcinoma (HT-29, DLD-1, HCT 116), human neuroblastoma (SH SY5Y), and human leukemia (JURKAT, RMPI 8866, K-562) cell lines. The study was conducted in triplicate at the following seven concentrations: 0.62, 1.25, 2.5, 5, 10, 20, and 40 μM.
(§4) The selected cell lines were seeded into 96-well plates and cultured in accordance with the previously described methodology. Then, the cells were treated with all tested compounds and DOX at concentrations of 0.625, 1.25, 2.5, 5.0, 10.0, 20.0, and 40.0 μM for 24 h. A solution of 3-(4,5-dimethyl-2-thiazolyl)-2,5-diphenyl-2H-tetrazolium bromide (Sigma-Aldrich, St. Louis, MO, USA) in phosphate-buffered saline without calcium and magnesium (Corning, Kennebunk, ME, USA) at a concentration of 5 mg/mL was used to carry out MTT assay. After incubation, 20 μL of the prepared MTT solution was added, and then the cells were incubated at 37 °C for two hours. Afterwards, the cells were lysed using 100 μL of lysing buffer (comprising 25 mM HCl, 2% acetic acid, 3% DMF, and 5% SDS, with a pH of 4.7). The absorbance was determined at a wavelength of 570 nm using an Absorbance 96 microplate reader (Byonoy GmbH, Hamburg, Germany).

HCC-1954 = test: MTT assay; format: cell-based; settings: Homo sapiens, HCC1954; HCC-1954, 24 h of treatment
Description: as §3, §4

DLD-1 = test: MTT assay; format: cell-based; settings: Homo sapiens; DLD-1, 24 h of treatment
Description: as §3, §4

K562 = test: MTT assay; format: cell-based; settings: Homo sapiens; K562, 24 h of treatment
Description: as §3, §4

Jurkat = test: MTT assay; format: cell-based; settings: Homo sapiens, 24 h of treatment
Description: as §3, §4

RPMI 8866 = test: MTT assay; format: cell-based; settings: Homo sapiens; RPMI 8866, 24 h of treatment
Description: as §3, §4

HCT-116 = test: MTT assay; format: cell-based; settings: Homo sapiens; HCT-116, 24 h of treatment
Description: as §3, §4

AGS = test: MTT assay; format: cell-based; settings: Homo sapiens, 24 h of treatment
Description: as §3, §4

SH SY5Y = test: MTT assay; format: cell-based; settings: Homo sapiens, 24 h of treatment
Description: as §3, §4

MCF-7 [3] = test: MTT assay; format: cell-based; settings: Homo sapiens, MCF7; MCF-7, 24 h of treatment
Description: as §3, §4

MDA-MB-231 [4] = test: MTT assay; format: cell-based; settings: Homo sapiens; MDA-MB-231, 24 h of treatment
Description: as §3, §4

MCF-7 [5] = settings: cited from earlier work
MDA-MB-231 [6] = settings: cited from earlier work
[7] = tested on: reactive oxygen species in MCF-7 cells; test: H2DCFDA and DAPI double staining; format: cell-based, human; settings: MCF-7, 1 and 5 μM, one hour
Description: (§5) The double staining method was applied to analyze novel compounds’ effects on the generation of reactive oxygen species. The first dye, H2DCFDA, after conversion to DCF, serves as an indicator of oxidative stress (green fluorescence), while the second one, known as DAPI, was applied to showcase nuclear genetic material of MCF-7 and MDA-MB-231 breast cancer cells (blue fluorescence). The concentrations of compounds were 1 and 5 μM for the MCF-7 cell line and 5 and 10 μM for the MDA-MB-231 cell line. The incubation time after treatment was one hour in both cell lines.
(§6) The influences of 2b, 12b, 14b, and doxorubicin (1 and 5 µM and 5 and 10 µM for MCF-7 and MDA-MB-231 cell lines, respectively) on the generation of reactive oxygen species (ROS) were analyzed. Cells were seeded in 6-well culture plates at 1 × 10^5 cells per well in 1 mL of medium and then treated with compounds for 1 h and then washed with PBS. Double staining was conducted with 20 µM 2′,7′-dichlorodihydrofluorescein diacetate (H2DCFDA) reagent (Thermo Fisher Scientific, Eugene, OR, USA), which is colorless, and is cleaved by intracellular esterases and oxidized to the highly fluorescent 2′,7′-dichlorofluorescein (DCF), and 10 µg/mL of the fluorescent dye 4′,6-diamidino-2-phenylindole (DAPI) (Sigma-Aldrich, St. Louis, MO, USA), which visualizes the nuclear DNA of cells. A Nikon ECLIPSE Ti fluorescence microscope (Nikon, Tokyo, Japan) was used to obtain results which were analyzed using ImageJ software 1.54k (Bethesda, MD, USA). The fluorescence intensity of the DCF reagent was evaluated relative to the control. The number of analyzed cells was above 100.

[8] = tested on: reactive oxygen species in MDA-MB-231 cells; test: H2DCFDA and DAPI double staining; format: cell-based, human; settings: MDA-MB-231, 5 and 10 μM, one hour
Description: as §5, §6

Structure (SMILES) | pIC50 (MCF-7 [1]) | pIC50 (MDA-MB-231 [2]) | pIC50 (HT-29) | pIC50 (HCC-1954) | pIC50 (DLD-1) | pIC50 (K562) | pIC50 (Jurkat) | pIC50 (RPMI 8866) | pIC50 (HCT-116) | pIC50 (AGS) | pIC50 (SH SY5Y) | pIC50 (MCF-7 [3]) | pIC50 (MDA-MB-231 [4]) | pIC50 (MCF-7 [5]; MCF-7 ref 4, read-out: IC50) | pIC50 (MDA-MB-231 [6]; MDA-MB-231 ref 4, read-out: IC50) | pIC50 (MCF-7 [5]; MCF-7 ref 39, read-out: concentration required to inhibit more than 50%) | pIC50 (MDA-MB-231 [6]; MDA-MB-231 ref 39, read-out: concentration required to inhibit more than 50%) | generation of reactive oxygen species [7] | generation of reactive oxygen species [8]
CC(C)CC(C(=O)O)N1C(=O)/C(=C/C=C/c2ccc([N+](=O)[O-])o2)SC1=S (centres unmarked) [7b, 4-Methyl-2-((Z)-5-((E)-3-(5-nitrofuran-2-yl)allylidene)-4-oxo-2-thioxothiazolidin-3-yl)pentanoic acid] | 5.17 | 5.66 | 4.87 | 5.20 | 5.12 | 4.73 | 5.11 | 4.77 | 5.10 | 5.26 | 4.81 | 5.15 | 4.78 |  |  |  |  |  | 
CCC(C(=O)O)N1C(=O)/C(=C/C=C/c2ccc([N+](=O)[O-])o2)SC1=S (centres unmarked) [3b, 2-((Z)-5-((E)-3-(5-Nitrofuran-2-yl)allylidene)-4-oxo-2-thioxothiazolidin-3-yl)butanoic acid] | 5.11 | 5.58 | 4.52 | 4.76 | 5.10 | 4.59 | 4.85 | 4.45 | 4.83 | 5.19 | 4.54 | 5.11 | 4.73 |  |  |  |  |  | 
O=C(O)C(Cc1ccccc1)N1C(=O)/C(=C/C=C/c2ccc([N+](=O)[O-])o2)SC1=S (centres unmarked) [10b, 2-((Z)-5-((E)-3-(5-Nitrofuran-2-yl)allylidene)-4-oxo-2-thioxothiazolidin-3-yl)-3-phenylpropanoic acid] | 5.10 | 5.22 | 4.54 | 4.72 | 5.03 | 4.59 | 5.17 | 4.78 | 4.87 | 5.07 | 4.72 | 5.03 | 4.64 |  |  |  |  |  | 
O=C(O)CN1C(=O)/C(=C/C=C/c2ccc([N+](=O)[O-])o2)SC1=S [1b, 2-((Z)-5-((E)-3-(5-Nitrofuran-2-yl)allylidene)-4-oxo-2-thioxothiazolidin-3-yl)acetic acid] | < 5.00 | < 4.52 | 4.65 | 4.60 | 4.54 | < 4.40 | 5.75 | < 4.40 | < 4.40 | 4.44 | < 4.40 | < 4.40 | < 4.40 |  |  |  |  |  | 
CC(C)C(C(=O)O)N1C(=O)/C(=C/C(Cl)=C/c2ccc([N+](=O)[O-])cc2)SC1=S (centres unmarked) [substructure B, 2-{5-[(Z,2Z)-2-Chloro-3-(4-nitrophenyl)-2-propenylidene]-4-oxo-2-thioxothiazolidin-3-yl}-3-methylbutanoic Acid] |  |  |  |  |  |  |  |  |  |  |  |  |  | 5.30 | 4.82 |  |  |  | 
O=C(O)CCCCCCCCCCN1C(=O)/C(=C/C=C/c2ccc([N+](=O)[O-])o2)SC1=S [15b, 11-((Z)-5-((E)-3-(5-nitrofuran-2-yl)allylidene)-4-oxo-2-thioxothiazolidin-3-yl)undecanoic acid] | 5.50 | < 4.52 | 5.02 | 5.21 | 5.75 | 4.81 | 5.85 | 4.96 | 4.98 | 5.77 | 5.42 | 5.39 | < 4.40 |  |  |  |  |  | 
O=C(O)C(Cc1ccc(O)cc1)N1C(=O)/C(=C/C=C/c2ccc([N+](=O)[O-])o2)SC1=S (centres unmarked) [11b, 3-(4-Hydroxyphenyl)-2-((Z)-5-((E)-3-(5-nitrofuran-2-yl)allylidene)-4-oxo-2-thioxothiazolidin-3-yl)propanoic acid] | < 5.00 | < 4.52 | < 4.40 | < 4.40 | 4.69 | < 4.40 | 4.77 | 4.56 | 4.44 | 4.51 | < 4.40 | 4.48 | < 4.40 |  |  |  |  |  | 
N.N.[Cl][Pt][Cl] [cisplatin] |  |  |  |  |  |  |  |  |  |  |  |  |  |  |  | ~4.10 | ~4.10 |  | 
CCC(C)C(C(=O)O)N1C(=O)/C(=C/C=C/c2ccc([N+](=O)[O-])o2)SC1=S (centres unmarked) [8b, 3-Methyl-2-((Z)-5-((E)-3-(5-nitrofuran-2-yl)allylidene)-4-oxo-2-thioxothiazolidin-3-yl)pentanoic acid] | 5.66 | 5.74 | 5.09 | 5.31 | 5.43 | 5.13 | 5.50 | 4.85 | 5.38 | 5.47 | 5.18 | 5.62 | 5.08 |  |  |  |  |  | 
COc1cccc2c1C(=O)c1c(O)c3c(c(O)c1C2=O)C[C@@](O)(C(=O)CO)C[C@@H]3O[C@H]1C[C@H](N)[C@H](O)[C@H](C)O1 [DOX, Doxorubicin hydrochloride, reference compound] | 5.75 | 6.44 | 6.14 | 5.50 | 5.55 | 6.37 | 6.14 | 6.42 | 4.78 | 5.96 | 4.40 | 6.14 | 5.12 |  |  |  |  | fewer effects on reactive oxygen species generation | fewer effects on reactive oxygen species generation
